Reference: patent publication US5952464A, “Labelled peptide compounds” (Mallinckrodt Inc., priority 1994, dated 1999)

Tests used:
[1] = biological target: neurotensin receptor sites; test: inhibition of [3H]neurotensin binding to guinea pig forebrain membranes
Procedure: Binding assays are performed by studying the inhibition of [^3 H]neurotensin binding to guinea pig forebrain membranes. The following results are obtained, using the unlabelled acetyl compound […]-OH (SEQ ID NO:4) (a) as the reference.

[2] = enzymatic stability in vitro in human serum; assay type: in vitro ADME
Procedure: The enzymatic stability of the four radioiodinated analogues (1), (2), (3) and (4) is determined in vitro in human serum in a conventional manner, showing that this stability is sufficient.

[3] = cited from earlier work
[4] = biological target: rat brain synaptic membranes; details: binding on rat brain synaptic membranes; cited from earlier work
[5] = tested on: human brain neurotensin receptors; details: cited from earlier work

| Substance | pIC50 [1] | enzymatic stability [2] | in vivo half-life [3] | Kd [4] [nM] | affinity of neurotensin receptors in human brain ([5]; preliminary experiments, Sadoul et al. 1984) | Kd ([5]; binding to human brain neurotensin receptors) [nM] |
| --- | --- | --- | --- | --- | --- | --- |
| (4*I-phenyl)acetyl-^1 Arg-^2 Arg-^3 Pro-^4 Tyr-^5 -Ile-^6 Leu-OH [(2)] | 7.87 | sufficient | – | – | – | – |
| 4-*I-benzoyl-^1 Arg-^2 Arg-^3 Pro-^4 Tyr-^5 Ile-^6 Leu-OH [(4)] | 8.10 | sufficient | – | – | – | – |
| monoiodo-[Trp^11 ]-neurotensin (QLYENKPRRPWIL; Neurotensin 125I on Tyr3; UniProt P30990 151-163, looked up, variant Y11W) [monoiodo-[Trp11]-neurotensin, neurotensin analogue with tyrosine-11 replaced by tryptophan, mono-iodinated with 125-iodide on tyrosine-3] | – | – | only a few minutes | 0.1 | low affinity | – |
| mono-iodo derivative of neurotensin: mono-iodo derivative of neurotensin itself; only tyrosine-3 iodinated with 125-iodide | – | – | only a few minutes | 0.2 | – | 0.26 |
| (2-*I-phenyl)acetyl-^1 Arg-^2 Arg-^3 Pro-^4 Tyr-^5 Ile-^6 Leu-OH [(1)] | 8.05 | sufficient | – | – | – | – |
| 2-*I-benzoyl-^1 Arg-^2 Arg-^3 Pro-^4 Tyr-^5 Ile-^6 Leu-OH [(3)] | 8.07 | sufficient | – | – | – | – |
